Distribution of radioactivity, Radioactivity and Lipid-soluble radioactivity data for two compounds are collected here from ChEMBL document CHEMBL1128242, “Polyiodinated triglyceride analogs as potential computed tomography imaging agents for the liver” (J Med Chem, 1995).

Assay type in all cases: ADME, organism-based
The test system of data set [1] is Rattus norvegicus. Kind of data set: Distribution of radioactivity was determined in plasma at 24 hr after intravenous administration of [125I]-labeled 2-oleoglycerol 1,3-Bis-[omega-(3-amino-2,4,6-triiodophenyl)alkanoates] in rats. Further details: unit not given here. The settings on record: in vivo.
The test system of data set [2] is Rattus norvegicus. Kind of data set: Distribution of radioactivity was determined in kidney at 30 min after intravenous administration of [125I]-labeled 2-oleoglycerol 1,3-Bis-[omega-(3-amino-2,4,6-triiodophenyl)alkanoates] in rats. Conditions: in vivo, 0.5 h.
The test system of data set [3] is Rattus norvegicus. The data set is described as follows: Polyacrylamide Gel Electrophoresis (PAGE) to determined the concentration of stacking gel(SG) in rats after iv administration of [125I]-labeled 2-Oleolyl 1,3-disubstituted triglycerols was reported. Conditions: in vivo.
In data set [4] the test system is Rattus norvegicus. Kind of data set: Distribution of radioactivity was determined in blood at 3h after intravenous administration of 1,3-Disubstituted Triacylglycerols in rats. The settings on record: in vivo.
Data set [5] relates to Rattus norvegicus. The data set is described as follows: Distribution of radioactivity was determined in spleen at 30 min after intravenous administration of [125I]-labeled 2-oleoglycerol 1,3-Bis-[omega-(3-amino-2,4,6-triiodophenyl)alkanoates] in rats. The settings on record: in vivo, 0.5 h.
Data set [6] has as its system Rattus norvegicus. The data set is described as follows: Distribution of radioactivity was determined in spleen at 30 min after intravenous administration of 1,3-Disubstituted Triacylglycerols in rats. The settings on record: in vivo, 0.5 h.
Data set [7] deals with Rattus norvegicus. The data set is described as follows: Analysis of lipid-soluble radioactivity in plasma 0.5 hour after iv administration of [125I]-labeled 2-Oleoyl 1,3-disubstituted Triacylglycerols expressed as %parent compound (by TLC with authentic [125I]-labeled standard) from rat. Conditions: in vivo.
Data set [8] concerns Rattus norvegicus. The data set is described as follows: Polyacrylamide Gel Electrophoresis (PAGE) to determined the concentration of low density lipoprotein (LDL) in rats after iv administration of [125I]-labeled 2-Oleolyl 1,3-disubstituted triglycerols was reported. The settings on record: in vivo.
In data set [9] the test system is Rattus norvegicus. The data set is described as follows: Distribution of radioactivity was determined in plasma at 3h after intravenous administration of [125I]-labeled 2-oleoglycerol 1,3-Bis-[omega-(3-amino-2,4,6-triiodophenyl)alkanoates] in rats. The settings on record: in vivo.
Data set [10] deals with Rattus norvegicus. The data set is described as follows: Distribution of radioactivity was determined in blood at 24 hr after intravenous administration of [125I]-labeled 2-oleoglycerol 1,3-Bis-[omega-(3-amino-2,4,6-triiodophenyl)alkanoates] in rats. Conditions: in vivo.
The subject of data set [11] is Rattus norvegicus. The data set is described as follows: Distribution of radioactivity was determined in blood at 30 min after intravenous administration of 1,3-Disubstituted Triacylglycerols in rats. Conditions: in vivo, 0.5 h.
Data set [12] concerns Rattus norvegicus. Kind of data set: Distribution of radioactivity was determined in blood at 24 hr after intravenous administration of 1,3-Disubstituted Triacylglycerols in rats. The settings on record: in vivo.
For data set [13], the system named is Rattus norvegicus. The data set is described as follows: Distribution of radioactivity was determined in liver at 3h after intravenous administration of [125I]-labeled 2-oleoglycerol 1,3-Bis-[omega-(3-amino-2,4,6-triiodophenyl)alkanoates] in rats. The settings on record: in vivo.

The structures appear in SMILES notation.

`CCCCCCCC/C=C/CCCCCCCC(=O)OC(COC(=O)CCCc1c(I)cc(I)c(N)c1I)COC(=O)CCCc1c(I)cc(I)c(N)c1I`: the Distribution of radioactivity with Rattus norvegicus [1] was 0.24; with Rattus norvegicus [2], 0.14 % dose/g; in the data set on Rattus norvegicus [4], 0.9 % dose/organ; in the data set on Rattus norvegicus [5], 31.7 % dose/g; with Rattus norvegicus [6] it was 13.7 % dose/organ; in the data set with Rattus norvegicus [9] it was 0.13 % dose/g. Moreover, the Distribution of radioactivity came to 0.15 % dose/g in the data set on Rattus norvegicus [10], 5.8 % dose/organ with Rattus norvegicus [11], 1.5 % dose/organ in the data set on Rattus norvegicus [12] and 13.8 % dose/g with Rattus norvegicus [13]. The results for the Radioactivity in the data set on Rattus norvegicus [3] and in the data set with Rattus norvegicus [8] were 80.9% and 3.2%, respectively. The Lipid-soluble radioactivity in the data set with Rattus norvegicus [7] was 85.8.

Take `CCCCCCCC/C=C/CCCCCCCC(=O)OC(COC(=O)CCc1c(I)cc(I)c(N)c1I)COC(=O)CCc1c(I)cc(I)c(N)c1I`: the Distribution of radioactivity with Rattus norvegicus [1] came out at 0.05; in the data set on Rattus norvegicus [2], 0.11 % dose/g; in the data set on Rattus norvegicus [4], 0.7 % dose/organ; in the data set on Rattus norvegicus [5], 27.6 % dose/g; with Rattus norvegicus [6] it was 13 % dose/organ; in the data set on Rattus norvegicus [9], 0.09 % dose/g. For the same compound, the Distribution of radioactivity in the data set with Rattus norvegicus [10] was 0.04 % dose/g; with Rattus norvegicus [11], 5.1 % dose/organ; in the data set with Rattus norvegicus [12], 0.4 % dose/organ; in the data set with Rattus norvegicus [13] it was 10.9 % dose/g. The values for the Radioactivity in the data set with Rattus norvegicus [3] and in the data set with Rattus norvegicus [8] were 67.3% and 8.3%, respectively.
